In patent US9394286B2, “Rock inhibitors” (Amakem NV, priority 2012, dated 2016):
Counter-ions that a name gives are not always drawn.

Experiments:
ROCK2 = ROCK2 (Homo sapiens, UniProt O75116); assay: Kinase inhibition (ROCKI & ROCKII), radiometric 33P-ATP assay; format: biochemical; details: ROCK 1 nM, 120 min at room temperature
Procedure: On-target activity against ROCK was measured in a biochemical assay, using the following reagents: Base Reaction buffer; 20 mM Hepes (pH 7.5), 10 mM MgCl2, 1 mM EGTA, 0.02% Brij35, 0.02 mg/ml BSA, 0.1 mM Na3VO4, 2 mM DTT, 1% DMSO. Required cofactors are added individually to each kinase reaction. The reaction procedure first involved the preparation of a peptide substrate in a freshly prepared reaction buffer. Required cofactors were then added to the substrate solution. ROCK (1 nM final concentration) was then delivered to the substrate solution. After gentle mix, DMSO solutions of the test compounds were added to the enzyme. Substrate mix ^33P-ATP (specific activity 0.01 μCi/μl final) was then delivered into the reaction mixture to initiate the reaction. The kinase reaction was incubated for 120 min. at room temperature. Reactions were then spotted onto P81 ion exchange paper (Whatman #3698-915). Filters were washed extensively in 0.1% Phosphoric acid. A radiometric count was then performed and IC50 values were subsequently determined.
The IC50 values obtained (in accordance with the protocol set forth above) are represented as follows: “+++” means IC50 below 0.1 μM, “++” means IC50 between 0.1 μM and 1 μM; “+” means IC50 between 1 and 10 μM and “ND” means “not determined yet”.

[1] = Stability assay in rabbit aqueous humor; format: in vitro ADME; details: 1 μM compound in rabbit aqueous humor, LC-MS/MS; read-out: t½ AH
Procedure: Compounds are incubated at a concentration of 1 μM in rabbit aqueous humor (AH). Samples are taken at fixed time points and the remnant of compound is determined by LC-MS/MS after protein precipitation. Half life is expressed in minutes.

[2] = Stability assay in human plasma; format: in vitro ADME; details: 1 μM compound, LC-MS/MS, read-out: t½ human plasma
Procedure: (§1) Compounds are incubated at a concentration of 1 μM in human or animal (rat, mice or rabbit) […] or whole blood. Samples are taken at fixed time points and the remnant of compound is determined by LC-MS/MS after protein precipitation. Half life is expressed in minutes.

[3] = test system: MLC-T18/S19 phosphorylation; assay: Myosin light chain phosphorylation assay (ELISA) in A7r5 cells; format: cell-based, Rat; details: for EC50: Rattus norvegicus, MLC-T18/S19 phosphorylation, A7r5 cells, serum-free medium
Procedure: Rat smooth muscle cell line A7r5 is used. The endogenous expression of ROCK results in a constitutive phosphorylation of the regulatory myosin light chain at T18/S19. A7r5 cells were plated in DMEM supplemented with 10% FCS in multiwall cell culture plates. After serum starvation overnight, cells were incubated with compounds in serum-free medium.
Quantification of MLC-T18/S19 phosphorylation is assesses in 96 well-plates via ELISA using a phspho-MLC-T18/S19 specific antibody and a secondary detection antibody. Relative MLC phosphorylation is measured with respect to untreated cells (Positive control, 1.0) and cells treated with 100 μM Y-27632 (Negative control, 0.0). EC50 values were determined using GraphPad Prism 5.01 software using a nonlinear regression curve fit with variable hill slope.
The […] values obtained (in accordance with the protocols set forth above) are represented as follows: “+++” means EC50 below 0.3 μM, “++” means EC50 between 0.3 μM and 1 μM; “+” means EC50 between 1 and 10 μM and “−” means EC50>10 μM.

[4] = Stability assay in human whole blood; format: in vitro ADME; details: 1 μM compound, LC-MS/MS, read-out: t½ human whole blood
Procedure: as §1

ROCK2, sequence (O75116 whole entry, species assumed): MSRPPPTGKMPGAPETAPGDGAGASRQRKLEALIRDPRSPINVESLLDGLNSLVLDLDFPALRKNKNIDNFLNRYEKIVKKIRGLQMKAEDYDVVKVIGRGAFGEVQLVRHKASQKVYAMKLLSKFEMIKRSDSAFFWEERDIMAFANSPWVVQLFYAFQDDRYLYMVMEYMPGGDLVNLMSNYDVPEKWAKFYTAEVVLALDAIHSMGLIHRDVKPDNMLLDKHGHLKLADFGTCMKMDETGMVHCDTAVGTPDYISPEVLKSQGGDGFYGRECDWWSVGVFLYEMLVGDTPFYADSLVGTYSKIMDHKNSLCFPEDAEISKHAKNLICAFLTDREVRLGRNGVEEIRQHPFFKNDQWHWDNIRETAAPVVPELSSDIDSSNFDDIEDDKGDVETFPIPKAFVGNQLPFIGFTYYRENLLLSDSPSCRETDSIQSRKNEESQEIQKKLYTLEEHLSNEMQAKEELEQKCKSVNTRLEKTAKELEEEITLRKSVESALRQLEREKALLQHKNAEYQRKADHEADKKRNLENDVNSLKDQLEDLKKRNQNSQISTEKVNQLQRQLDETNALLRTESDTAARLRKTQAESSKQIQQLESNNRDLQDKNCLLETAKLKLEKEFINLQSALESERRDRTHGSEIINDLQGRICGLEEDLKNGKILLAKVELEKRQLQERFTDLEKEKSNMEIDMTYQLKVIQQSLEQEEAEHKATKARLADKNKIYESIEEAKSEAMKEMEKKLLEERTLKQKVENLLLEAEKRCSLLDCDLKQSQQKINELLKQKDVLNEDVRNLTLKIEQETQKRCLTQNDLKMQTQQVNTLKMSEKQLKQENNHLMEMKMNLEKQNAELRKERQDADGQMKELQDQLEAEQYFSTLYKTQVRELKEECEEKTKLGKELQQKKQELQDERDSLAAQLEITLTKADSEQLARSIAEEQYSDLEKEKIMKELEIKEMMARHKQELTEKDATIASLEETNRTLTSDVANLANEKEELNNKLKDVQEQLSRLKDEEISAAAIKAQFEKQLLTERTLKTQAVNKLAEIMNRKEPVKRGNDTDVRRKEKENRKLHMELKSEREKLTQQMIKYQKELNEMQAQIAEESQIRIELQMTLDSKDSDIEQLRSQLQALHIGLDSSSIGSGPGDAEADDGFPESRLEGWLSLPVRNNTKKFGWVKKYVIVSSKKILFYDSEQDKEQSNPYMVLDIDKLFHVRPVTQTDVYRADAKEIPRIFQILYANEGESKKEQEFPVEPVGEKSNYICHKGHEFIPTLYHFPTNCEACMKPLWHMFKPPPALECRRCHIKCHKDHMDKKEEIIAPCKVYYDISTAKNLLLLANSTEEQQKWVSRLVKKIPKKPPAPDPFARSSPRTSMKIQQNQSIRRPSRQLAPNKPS

Row | Compound | IC50 (ROCK2) | half-life at 1 μM [1] | half-life at 1 μM [2] | EC50 [3] | half-life at 1 μM [4] | difference in EC50 values between compound 32 and its metabolite Met1 ([3]; MLC phosphorylation assay, FIG. 1, Met1 versus parent compound 32)
1 | COCCOC(=O)c1cccc(C(=O)Nc2cccc(CNC3CCC(Nc4cccc5cnccc45)CC3)c2)c1 (stereo not shown) [Compound 28] | < 100 nM | > 120 min | < 20 min | – | – | –
2 | COCCOC(=O)c1ccc(C(=O)Nc2cccc(CNC3CCC(Nc4cccc5cnccc45)CC3)c2)cc1 (stereo not shown) [Compound 31] | < 100 nM | – | – | – | – | –
3 | COC(=O)c1cccc(C(=O)Nc2cccc(CN3CCC(Nc4cccc5cnccc45)CC3)c2)c1 [Compound 18] | < 100 nM | – | – | – | – | –
4 | CCCOC(=O)c1ccc(C(=O)Nc2cccc(CNC3CCC(Nc4cccc5cnccc45)CC3)c2)cc1 (stereo not shown) [Compound 30] | < 100 nM | – | – | – | – | –
5 | CCCOC(=O)c1cccc(C(=O)Nc2cccc(CN3CCC(Nc4cccc5cnccc45)CC3)c2)c1 [Compound 33] | < 100 nM | > 120 min | < 20 min | – | – | –
6 | COC(=O)c1ccc(C(=O)Nc2cccc(CN3CCC(Nc4cccc5cnccc45)C3)c2)cc1 (stereo not shown) [Compound 2, Methyl 4-((3-((3-(isoquinolin-5-ylamino)pyrrolidin-1-yl)methyl)phenyl)carbamoyl)benzoate] | < 100 nM | – | – | < 300 nM | – | –
7 | O=C(O)c1ccc(C(=O)Nc2cccc(CNC3CCC(Nc4cccc5cnccc45)CC3)c2)cc1 (stereo not shown) [Met1] | – | – | – | – | – | > 20 fold
8 | C[C@@H](N)[C@H]1CC[C@H](C(=O)Nc2ccncc2)CC1 [Compound Y-27632, Y-27632, reference compound] | – | – | – | 300 to 1000 nM | – | –
9 | COC(=O)c1cccc(C(=O)Nc2cc(CN3CCC(Nc4cccc5cnccc45)C3)ccc2C)c1 (stereo not shown) [Compound 7] | – | > 120 min | 31 min | – | – | –
10 | O=C(Nc1cccc(CN2CCC(Nc3cccc4cnccc34)C2)c1)c1cccc(C(=O)OCC2CCCO2)c1 (stereo not shown) [Compound 23] | < 100 nM | 77 min | < 20 min | – | < 20 min | –
11 | COC(=O)c1ccc(C(=O)Nc2cccc(CN3CCC(Nc4cccc5cnccc45)CC3)c2)cc1 [Compound 19] | < 100 nM | – | – | – | – | –
12 | O=C(Nc1cccc(CN2CCC(Nc3cccc4cnccc34)CC2)c1)c1ccc(C(=O)OCC2CCCO2)cc1 (stereo not shown) [Compound 38] | < 100 nM | – | – | – | – | –
13 | O=C(Nc1cccc(CN2CCC(Nc3cccc4cnccc34)C2)c1)c1ccc(C(=O)OCC2CCCO2)cc1 (stereo not shown) [Compound 26] | < 100 nM | – | – | – | – | –

Now from value to molecule:

Row | IC50 (ROCK2) | half-life at 1 μM [1] | half-life at 1 μM [2] | EC50 [3] | half-life at 1 μM [4] | difference in EC50 values between compound 32 and its metabolite Met1 ([3]; MLC phosphorylation assay, FIG. 1, Met1 versus parent compound 32) | Compound
14 | < 100 nM | – | – | – | – | – | COCCOC(=O)c1ccc(C(=O)Nc2cccc(CN3CCC(Nc4cccc5cnccc45)C3)c2)cc1 (stereo not shown) [Compound 25]
15 | – | > 120 min | – | – | – | – | COC(=O)c1ccc(C(=O)Nc2cc(CN3CCCC(Nc4ccc5[nH]ncc5c4)C3)ccc2C)cc1 (stereo not shown) [Compound 15]
16 | < 100 nM | > 120 min | < 20 min | – | – | – | CCCOC(=O)c1cccc(C(=O)Nc2cccc(CNC3CCC(Nc4cccc5cnccc45)CC3)c2)c1 (stereo not shown) [Compound 27]
17 | < 100 nM | – | – | < 300 nM | – | – | CCCOC(=O)c1ccc(C(=O)Nc2cccc(CN3CCC(Nc4cccc5cnccc45)C3)c2)cc1 (stereo not shown) [Compound 24]
18 | – | – | – | 1000 to 10000 nM | – | – | O=S(=O)(c1cccc2cnccc12)N1CCCNCC1 [Fasudil, reference compound]
19 | < 100 nM | > 120 min | < 20 min | – | – | – | O=C(Nc1cccc(CN2CCC(Nc3cccc4cnccc34)CC2)c1)c1cccc(C(=O)OCC2CCCO2)c1 (stereo not shown) [Compound 35]
20 | < 100 nM | > 120 min | < 20 min | < 300 nM | < 20 min | – | COCCOC(=O)c1cccc(C(=O)Nc2cccc(CN3CCC(Nc4cccc5cnccc45)C3)c2)c1 (stereo not shown) [Compound 22]
21 | < 100 nM | > 120 min | < 20 min | – | – | – | O=C(Nc1cccc(CNC2CCC(Nc3cccc4cnccc34)CC2)c1)c1cccc(C(=O)OCC2CCCO2)c1 (stereo not shown) [Compound 29]
22 | < 100 nM | – | < 20 min | < 300 nM | – | – | COC(=O)c1cccc(C(=O)Nc2cccc(CNC3CCC(Nc4cccc5cnccc45)CC3)c2)c1 (stereo not shown) [Compound 16]
23 | < 100 nM | > 120 min | – | < 300 nM | – | – | COC(=O)c1cccc(C(=O)Nc2cccc(CN3CCC(Nc4cccc5cnccc45)C3)c2)c1 (stereo not shown) [Compound 1, Methyl 3-((3-((3-(isoquinolin-5-ylamino)pyrrolidin-1-yl)methyl)phenyl)carbamoyl)benzoate]
24 | < 100 nM | > 120 min | < 20 min | 300 to 1000 nM | – | – | COCCOC(=O)c1cccc(C(=O)Nc2cccc(CN3CCC(Nc4cccc5cnccc45)CC3)c2)c1 [Compound 34]
25 | < 100 nM | – | – | – | – | – | COCCOC(=O)c1ccc(C(=O)Nc2cccc(CN3CCC(Nc4cccc5cnccc45)CC3)c2)cc1 [Compound 37]
26 | < 100 nM | – | 20 min | 300 to 1000 nM | – | – | O=C(Nc1cccc(CNC2CCC(Nc3cccc4cnccc34)CC2)c1)c1ccc(C(=O)OCC2CCCO2)cc1 (stereo not shown) [Compound 32]
27 | – | > 120 min | 33 min | – | – | – | COC(=O)c1cccc(C(=O)Nc2cc(CN3CCCC(Nc4ccc5[nH]ncc5c4)C3)ccc2C)c1 (stereo not shown) [Compound 3, Methyl 3-((5-((3-((1H-indazol-5-yl)amino)piperidin-1-yl)methyl)-2-methylphenyl)carbamoyl)benzoate dihydrochloride]
28 | < 100 nM | – | – | – | – | – | COC(=O)c1ccc(C(=O)Nc2cccc(CNC3CCC(Nc4cccc5cnccc45)CC3)c2)cc1 (stereo not shown) [Compound 17]
29 | < 100 nM | – | – | – | – | – | CCCOC(=O)c1ccc(C(=O)Nc2cccc(CN3CCC(Nc4cccc5cnccc45)CC3)c2)cc1 [Compound 36]
30 | < 100 nM | 120 min | < 20 min | < 300 nM | < 20 min | – | CCCOC(=O)c1cccc(C(=O)Nc2cccc(CN3CCC(Nc4cccc5cnccc45)C3)c2)c1 (stereo not shown) [Compound 21]
